Source: US9663475B2, “2 amino-3,4-dihydrcquinazoline derivatives and the use thereof as cathepsin D inhibitors” (Merck Patent GmbH, priority 2013, dated 2017)
Non-standard residues stand in square brackets, D forms with d. Residues, ends and D or L forms follow the SMILES beside them. *: point of attachment. Sta = CC(C)C[C@H](N)[C@@H](O)CC(=O)O; Isovaleryl = CC(C)CC(=O)*

Biological target: cathepsin D isolated from the human liver (Homo sapiens (Human), UniProt P07339)
Assay: In-vitro fluorescence assay for identification of cathepsin D inhibitors
Format: biochemical
Conditions: human liver cathepsin D 1.4 nM, pH 5.5, substrate 5 μM; read-out: Cath D IC50
Experimental: In order to identify modulators of cathepsin D activity, a continuous enzymatic test was carried out with a synthetic peptide which carries a fluorescent group (MCA=(7-methoxycoumarin-4-yl)acetyl) which is quenched by energy transfer from a Dpn (2,4 dinitrophenyl) group on the same molecule, in Greiner 384-well nb microtitre plates. Cleavage of the peptidic substrate by cathepsin D causes an increase in the fluorescence intensity. In order to determine the efficacy of substances, the time-dependent increase in the fluorescence intensity in the presence of the substance was compared with the time-dependent increase in fluorescence in the absence of substances. The reference substance used was pepstatin A (Sigma-Aldrich). The substrate used was MCA-GKPILFFRLK(Dnp)d-R—NH2 (Enzo Life Sciences, Lörach). The enzyme employed was cathepsin D isolated from the human liver (Sigma-Aldrich) in a final concentration of 1.4 nM. The test was carried out in 100 mM sodium acetate buffer, 1.25% (v/v) of DMSO, 0.25% (w/v) of Chaps, pH 5.5. 2 μl of each substance solution with serially diluted substance concentration were added to in each case 4 μl of cathepsin D solution and incubated at room temperature for 10 min. The reaction was started by addition of 2 μl of substrate solution (final concentration 5 μM). After carrying out a starting-point fluorescence measurement (excitation wavelength 340 nm/emission wavelength 450 nm) using an Envision multilabel reader (Perkin Elmer), the reaction was incubated at room temperature for 60 min. The amount of peptide fragment cleaved off during the reaction time was subsequently measured by determination of the increase in the fluorescence intensity at 450 nm (excitation wavelength 340 nm).
The IC50 values of the compounds according to the invention can be obtained from Table 2 from Example 1.

Chain of cathepsin D isolated from the human liver (P07339 65-161): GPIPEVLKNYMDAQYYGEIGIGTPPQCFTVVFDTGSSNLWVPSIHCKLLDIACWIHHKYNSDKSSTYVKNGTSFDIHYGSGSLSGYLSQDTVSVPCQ
Chain of cathepsin D isolated from the human liver (P07339 169-412): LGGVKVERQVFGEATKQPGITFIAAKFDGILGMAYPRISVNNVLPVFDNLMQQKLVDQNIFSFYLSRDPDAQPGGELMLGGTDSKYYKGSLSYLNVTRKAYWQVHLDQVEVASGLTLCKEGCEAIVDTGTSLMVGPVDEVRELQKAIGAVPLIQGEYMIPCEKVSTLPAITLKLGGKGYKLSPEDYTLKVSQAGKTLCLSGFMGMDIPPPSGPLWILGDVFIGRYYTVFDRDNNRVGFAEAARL

Question: Which IC50 does the source give for `CCCc1ccc2c(c1)N=C(N)N(C1Cc3ccccc3C1)C2` [Compound A7, 3-indan-2-yl-7-propyl-3,4-dihydroquinazolin-2-ylamine] here?
Answer: 0.14 µM

Question: Which IC50 does the source give for `COc1ccc2c(c1)CC(N1Cc3ccc(C(F)(F)F)cc3N=C1N)C2` (racemic) [Compound A16, 3-(5-methoxyindan-2-yl)-7-trifluoromethyl-3,4-dihydroquinazolin-2-ylamine] here?
Answer: 0.17 µM

Question: For `NC1=Nc2cc(Cl)ccc2CN1C1Cc2ccccc2C1` [Compound A3, 7-chloro-3-indan-2-yl-3,4-di hydroquinazolin-2-ylamine], which IC50 is on record?
Answer: 0.96 µM

Question: Which IC50 does the source give for `NC1=Nc2ccccc2CN1C1Cc2ccccc2C1` [Compound A2, 3-indan-2-yl-3,4-dihydroquinazolin-2-ylamine] here?
Answer: 2.3 µM

Question: For `CCc1ccc2c(c1)N=C(N)N(C1Cc3ccc(OC)cc3C1)C2` (stereo not shown) [Compound A17, 7-ethyl-3-(5-methoxyindan-2-yl)-3,4-dihydroquinazolin-2-ylamine], which IC50 is on record?
Answer: 0.27 µM

Question: With `NC1=Nc2cc(C(F)(F)F)ccc2CN1C1CCc2ccccc2C1` (stereo not shown) [Compound A20, 3-(1,2,3,4-tetrahydronaphthalen-2-yl)-7-trifluoromethyl-3,4-dihydroquinazolin-2-ylamine] as the molecule, how does the IC50 read?
Answer: 3.8 µM

Question: Which IC50 does the source give for `COc1cc2c(cc1OC)CC(N1Cc3ccc(Cl)cc3N=C1N)C2` [Compound A9, 7-chloro-3-(5,6-dimethoxyindan-2-yl)-3,4-dihydroquinazolin-2-ylamine] here?
Answer: 0.51 µM

Question: With `NC1=Nc2cc(C(=O)N3CCOCC3)ccc2CN1C1Cc2ccccc2C1` [Compound A26, (2-amino-3-indan-2-yl-3,4-dihydroquinazolin-7-yl)morpholin-4-ylmethanone] as the molecule, how does the IC50 read?
Answer: 3 µM

Question: For `COc1ccc2c(c1)CC(N1Cc3ccc(Cl)cc3N=C1N)C2` (stereo not shown) [Compound A14, 7-chloro-3-(5-methoxyindan-2-yl)-3,4-dihydroquinazolin-2-ylamine], which IC50 is on record?
Answer: 0.62 µM

Question: Which IC50 does the source give for `NC1=Nc2cccc(Cl)c2CN1C1Cc2ccccc2C1` [Compound A4, 5-chloro-3-indan-2-yl-3,4-di hydroquinazolin-2-ylamine] here?
Answer: 8.4 µM

Question: For `COc1ccc2c(c1)CN(C(=O)c1ccc3c(c1)N=C(N)N(C1Cc4ccccc4C1)C3)C2` [Compound A22, (2-amino-3-indan-2-yl-3,4-dihydroquinazolin-7-yl)-(5-methoxy-1,3-dihydroisoindol-2-yl)methanone], which IC50 is on record?
Answer: 0.18 µM

Question: For `NC1=Nc2cc(Cl)ccc2CN1C1CCCc2ccccc21` (stereo not shown) [Compound A6, 7-chloro-3-(1,2,3,4-tetrahydronaphthalen-1-yl)-3,4-dihydroquinazolin-2-ylamine], which IC50 is on record?
Answer: 1.4 µM

Question: With `CO[C@@H]1c2ccccc2C[C@@H]1N1Cc2ccc(C(F)(F)F)cc2NC1=N` [Compound A31, 3-((1R,2S)-1-methoxyindan-2-yl)-7-trifluoromethyl-3,4-dihydro-1H-quinazolin-2-ylidenamine] as the molecule, how does the IC50 read?
Answer: 2.5 µM

Question: For `NC1=Nc2cc(C(F)(F)F)ccc2CN1C1Cc2ccccc2C1` [Compound A10, 3-indan-2-yl-7-trifluoromethyl-3,4-dihydroquinazolin-2-ylamine], which IC50 is on record?
Answer: 0.3 µM

Question: Which IC50 does the source give for `NC1=Nc2cc(C(=O)N3CCOc4ccccc43)ccc2CN1C1Cc2ccccc2C1` [Compound A30, (2-amino-3-indan-2-yl-3,4-dihydroquinazolin-7-yl)-(2,3-dihydrobenzo[1,4]oxazin-4-yl)methanone] here?
Answer: 0.24 µM

Question: With `COc1ccc2c(c1)C[C@H](N1Cc3ccc(C(F)(F)F)cc3N=C1N)C2` (single isomer, unassigned) [Compound A19] as the molecule, how does the IC50 read?
Answer: 0.32 µM

Question: For `COc1ccc2c(c1OC)CC(N1Cc3ccc(Cl)cc3N=C1N)C2` (stereo not shown) [Compound A11, 7-chloro-3-(4,5-dimethoxyindan-2-yl)-3,4-dihydroquinazolin-2-ylamine], which IC50 is on record?
Answer: 0.78 µM

Question: Which IC50 does the source give for `NC1=Nc2cc(C(=O)N3CCOCC3)ccc2CN1C1Cc2ccccc2C1` [Compound A25, (2-amino-3-indan-2-yl-3,4-dihydroquinazolin-7-yl)morpholin-4-ylmethanone] here?
Answer: 2.5 µM

Question: With `NC1=Nc2cc(C(=O)N3CCc4ccccc43)ccc2CN1C1Cc2ccccc2C1` [Compound A21, (2-amino-3-indan-2-yl-3,4-dihydroquinazolin-7-yl)-(2,3-dihydroindol-1-yl)methanone] as the molecule, how does the IC50 read?
Answer: 0.22 µM

Question: With `CCN(CC)C(=O)c1ccc2c(c1)N=C(N)N(C1Cc3ccccc3C1)C2` [Compound A24, N,N-diethyl-2-amino-3-indan-2-yl-3,4-dihydroquinazoline-7-carboxamide] as the molecule, how does the IC50 read?
Answer: 4.2 µM

Question: For `COc1cccc2c1CC(N1Cc3ccc(Cl)cc3N=C1N)C2` (stereo not shown) [Compound A12, 7-chloro-3-(4-methoxyindan-2-yl)-3,4-dihydroquinazolin-2-ylamine], which IC50 is on record?
Answer: 0.81 µM

Question: For `NC1=Nc2cc(-c3ccccc3)ccc2CN1C1Cc2ccccc2C1` [Compound A5, 3-indan-2-yl-7-phenyl-3,4-dihydroquinazolin-2-ylamine], which IC50 is on record?
Answer: 2.2 µM

Question: With `NC1=Nc2cc(C(F)(F)F)ccc2CN1C1CCc2ccccc21` (stereo not shown) [Compound A13, 3-indan-1-yl-7-trifluoromethyl-3,4-dihydroquinazolin-2-ylamine] as the molecule, how does the IC50 read?
Answer: 2.5 µM

Question: Which IC50 does the source give for `NC1=Nc2cc(C(F)(F)F)ccc2CN1C1c2ccccc2-c2ccccc21` [Compound A15, 3-(9H-fluoren-9-yl)-7-trifluoromethyl-3,4-dihydroquinazolin-2-ylamine] here?
Answer: 1.2 µM

Question: Which IC50 does the source give for `NC1=Nc2ccccc2CN1C1Cc2ccccc2C1` [Compound A1, 3-indan-2-yl-3,4-dihydroquinazolin-2-ylamine] here?
Answer: 2.7 µM

Question: For `Nc1nc2cc(C(F)(F)F)ccc2c(=O)n1C1Cc2ccccc2C1` [Compound A27, 2-amino-3-indan-2-yl-7-trifluoromethyl-3H-quinazolin-4-one], which IC50 is on record?
Answer: 3.3 µM

Question: With `NC1=Nc2cc(C(=O)N3CCCC3Cc3ccccc3)ccc2CN1C1Cc2ccccc2C1` (stereo not shown) [Compound A29, (2-amino-3-indan-2-yl-3,4-dihydroquinazolin-7-yl)-(2-benzylpyrrolidin-1-yl)methanone] as the molecule, how does the IC50 read?
Answer: 0.31 µM

Question: For `NNc1nc2cc(C(F)(F)F)ccc2c(=O)n1C1Cc2ccccc2C1` [Compound A28, 2-hydrazino-3-indan-2-yl-7-trifluoromethyl-3H-quinazolin-4-one], which IC50 is on record?
Answer: 24 µM

Question: With `COc1cc2c(cc1OC)CC(N1Cc3ccc(Cl)cc3N=C1N)C2` [Compound A8, 7-chloro-3-(5,6-dimethoxyindan-2-yl)-3,4-dihydroquinazolin-2-ylamine] as the molecule, how does the IC50 read?
Answer: 1.1 µM

Question: With `CCN(CC)C(=O)c1ccc2c(c1)N=C(N)N(C1Cc3ccccc3C1)C2` [Compound A23, N,N-diethyl-2-amino-3-indan-2-yl-3,4-dihydroquinazoline-7-carboxamide] as the molecule, how does the IC50 read?
Answer: 2.9 µM

Question: With `COc1ccc2c(c1)C[C@@H](N1Cc3ccc(C(F)(F)F)cc3N=C1N)C2` (single isomer, unassigned) [Compound A18] as the molecule, how does the IC50 read?
Answer: 0.27 µM

Tested on: not listed separately
Assay: Stability in plasma (h/r/m) or at pH 1.2 or pH 7.4
Format: in vitro ADME
Conditions: recovery after 4 h
Experimental: Stable: Recovery 75% after 4 h.

Question: With `CCCc1ccc2c(c1)N=C(N)N(C1Cc3ccccc3C1)C2` [Compound A7, 3-indan-2-yl-7-propyl-3,4-dihydroquinazolin-2-ylamine] as the molecule, how does the “Stability in plasma (h/r/m) or at pH 1.2 or pH 7.4” value (shortened to “Stability in plasma”) read?
Answer: stable (Stable: Recovery 75% after 4 h.)

Question: For `COc1ccc2c(c1)CC(N1Cc3ccc(C(F)(F)F)cc3N=C1N)C2` (racemic) [Compound A16, 3-(5-methoxyindan-2-yl)-7-trifluoromethyl-3,4-dihydroquinazolin-2-ylamine], which “Stability in plasma” value is on record?
Answer: stab;e

Question: With `CCc1ccc2c(c1)N=C(N)N(C1Cc3ccc(OC)cc3C1)C2` (stereo not shown) [Compound A17, 7-ethyl-3-(5-methoxyindan-2-yl)-3,4-dihydroquinazolin-2-ylamine] as the molecule, how does the “Stability in plasma” value read?
Answer: stable (Stable: Recovery 75% after 4 h.)

Question: For `COc1ccc2c(c1)CC(N1Cc3ccc(Cl)cc3N=C1N)C2` (stereo not shown) [Compound A14, 7-chloro-3-(5-methoxyindan-2-yl)-3,4-dihydroquinazolin-2-ylamine], which “Stability in plasma” value is on record?
Answer: stable (Stable: Recovery 75% after 4 h.)

Question: With `NC1=Nc2cc(C(F)(F)F)ccc2CN1C1Cc2ccccc2C1` [Compound A10, 3-indan-2-yl-7-trifluoromethyl-3,4-dihydroquinazolin-2-ylamine] as the molecule, how does the “Stability in plasma” value read?
Answer: stable (Stable: Recovery 75% after 4 h.)

Question: For `NC1=Nc2ccccc2CN1C1Cc2ccccc2C1` [Compound A1, 3-indan-2-yl-3,4-dihydroquinazolin-2-ylamine], which “Stability in plasma” value is on record?
Answer: stable (Stable: Recovery 75% after 4 h.)

Tested on: cartilage explant cultures
Assay: not given
Conditions: pH 5.5, explant cultures (mouse, cow or human); cited from earlier work

Question: For `CC(C)CC(=O)N[C@H](C(=O)N[C@H](C(=O)N[C@@H](CC(C)C)[C@@H](O)CC(=O)N[C@@H](C)C(=O)N[C@@H](CC(C)C)[C@@H](O)CC(=O)O)C(C)C)C(C)C` [pepstatin] (Isovaleryl-VV[Sta]A[Sta]-OH), which “inhibition of autodigestion of the cartilage” value is on record?
Answer: inhibited virtually completely

Question: With `CC(C)c1nc(CN(C)C(=O)N[C@H](C(=O)N[C@@H](Cc2ccccc2)C[C@H](O)[C@H](Cc2ccccc2)NC(=O)OCc2cncs2)C(C)C)cs1` [ritonavir] as the molecule, how does the “inhibition of autodigestion of the cartilage” value read?
Answer: inhibited virtually completely

Tested on: rat knee joint
Assay: Anti-hyperalgesic effect in animals: carrageenan-induced knee joint inflammation, swelling and Hargreaves test
Format: in vivo
Conditions: intra-articular, 30 minutes before CAR, TAC 10 μg/joint
Experimental: In order to induce an inflammation reaction, a carrageenan solution (CAR, 1%, 50 μl) was injected intra-articularly on one side into a rat knee joint. The uninjected side was used for control purposes. Six animals per group were used. The threshold was determined by means of a micrometer screw (medial-lateral on the knee joint), and the thermal hyperalgesia was determined by means of a directed infrared light source by the Hargreaves method (Hargreaves et al., 1988) on the sole of the foot. […] Experimental description of thermal hyperalgesia (Hargreaves test): the experimental animal is placed in a plastic chamber on a quartz sheet. Before testing, the experimental animal is firstly given about 5-15 minutes time to familiarise itself with the environment. As soon as the experimental animal no longer moves so frequently after the familiarisation phase (end of the exploration phase), the infrared light source, whose focus is in the plane of the glass bottom, is positioned directly beneath the rear paw to be stimulated. […] Light reflected by the paw is recorded as long as the experimental animal sits still. Withdrawal of the paw interrupts this reflection, after which the infrared light source is switched off and the time from switching on to switching off is recorded. […]

Question: Which “reduction of CAR-induced swelling” value does the source give for `C[C@]12C=CC(=O)C=C1CC[C@H]1[C@@H]3C[C@@H](O)[C@](O)(C(=O)CO)[C@@]3(C)C[C@H](O)[C@@]12F` [TAC, Triamcinolone] here?
Answer: capable of reducing the CAR-induced swelling
